3 molecules from patent US20240391862A1, “(1,4,5-TRISUBSTITUTED-1H-PYRAZOL-3-YL)OXY-2-ALKOXY ALKYL ACIDS AND THEIR DERIVATIVES, THEIR SALTS AND THEIR USE AS HERBICIDAL AGENTS” (Bayer AKtiengesellschaft, priority 2021, published 2024) can be followed below.

The structures appear in SMILES notation.

One assay deals with TRZAS. Description: Post-emergence herbicidal effect and crop plant compatibility, greenhouse pot test. It is filed as in vivo, Triticum aestivum. The settings on record: Triticum aestivum, 504 h, 20 g/ha, one-leaf stage, rated visually after about 3 weeks vs untreated controls, read-out: Post-emergence effect at 20 g/ha against TRZAS in %. Summed up:
(§1)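 Greenhouse pot plants in sandy loam receive a one-leaf-stage spray at 20 to 320 g/ha. Activity is assessed visually around 3 weeks afterwards on a 0–100% scale, where 100% means the plants have died.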

A further assay concerns BRSNW. The class given is in vivo, Brassica napus. The settings on record: one-leaf stage, rated visually after about 3 weeks vs untreated controls. From the text:
• ALOMY: Alopecurus myosuroides SETVI: Setaria viridis • AVEFA: Avena fatua POLCO: Fallopia convolvulus • AMARE: Amaranthus retroflexus ECHCG: Echinochloa crus-galli • LOLRJ: Lolium rigidum STEME: Stellaria media • VERPE: Veronica persica MATIN: Tripleurospermum inodorum • DIGSA: Digitaria sanguinalis ABUTH: Abutylon threophrasti • TRZAS: Triticum aestivum VIOTR: Viola tricolor • BRSNW: Brassica napus ZEAMX: Zea mays • PHBPU: Ipomoea purpurea GLXMA: Glycine max • ORYSA: Oryza sativa HORMU: Hordeum murinum
Seeds of monocotyledonous and dicotyledonous weeds and crop plants are placed in sandy loam in plastic or organic planting pots, covered with soil and cultivated in a greenhouse under controlled growth conditions. 2 to 3 weeks after sowing, the trial plants are treated at the one-leaf stage. The compounds of the invention, formulated in the form of wettable powders (WP) or as emulsion concentrates (EC), are then sprayed onto the green parts of the plants as aqueous suspension or emulsion with addition of 0.5% additive at a water application rate of 600 l/ha (converted). After the test plants have been kept in the greenhouse under optimum growth conditions for about 3 weeks, the activity of the preparations is rated visually in comparison to untreated controls. For example, 100% activity=the plants have died, 0% activity=like control plants.
Tables 20a to 38c below show the effects/crop compatibilities of selected compounds of the general formula (I) on various harmful plants at an application rate corresponding to 20 to 320 g/ha, which were obtained by the trial procedure specified above.

For the next assay, the system named is ZEAMX. Description: Post-emergence herbicidal effect and crop plant compatibility, greenhouse pot test. The class given is in vivo, Zea mays. The conditions noted are these: Zea mays, 504 h, one-leaf stage, rated visually after about 3 weeks vs untreated controls; for plant injury at 20 g/ha: read-out: Post-emergence effect at 20 g/ha against ZEAMX in %; for plant injury at 80 g/ha: read-out: Post-emergence effect at 80 g/ha against ZEAMX in %; for plant injury at 320 g/ha: read-out: Post-emergence effect at 320 g/ha against ZEAMX in %. Summed up: as §1

For another assay, the system named is VIOTR. Description: Post-emergence herbicidal effect, greenhouse pot test. It is filed as in vivo, Viola tricolor. The settings on record: Viola tricolor, 504 h, 320 g/ha, read-out: Post-emergence effect against VIOTR in %. Summed up:
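Sandy loam pots, greenhouse. One-leaf stage (2–3 wk after sowing) foliar spray; WP/EC in water + 0.5% additive, 600 l/ha; 20–320 g/ha. Visual score ~3 wk, 0–100% vs untreated.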

For the molecule `CCOC(Oc1nn(-c2ccccc2F)c(-c2ccc(F)nc2)c1Br)C(=O)O` (single isomer, unassigned) [Example I-65, (2R*)-{[4-Bromo-1-(2-fluorophenyl)-5-(6-fluoropyridin-3-yl)-1H-pyrazol-3-yl]oxy}(ethoxy)acetic acid], the percent crop injury (phytotoxicity) to wheat, post-emergence at 20 g/ha in the assay on TRZAS stood at 0%. Further, the “Post-emergence effect at 320 g/ha against BRSNW in %” value (“Post-emergence effect … in %” for short) in the assay on BRSNW is 0%. In the assay on ZEAMX, the plant injury at 20 g/ha was 0%, the plant injury at 80 g/ha amounted to 0% and the plant injury at 320 g/ha stood at 0%.
In the case of `COC(Oc1nn(-c2ncccc2F)c(-c2ccc(F)nc2)c1Br)C(=O)O` (stereo not shown) [Example I-45], the percent crop injury (phytotoxicity) to wheat, post-emergence at 20 g/ha with TRZAS was 0%. Besides, in the assay with BRSNW, the “Post-emergence effect … in %” value was found to be 0%. Moreover, in the assay on ZEAMX, the plant injury at 20 g/ha was found to be 0%, the plant injury at 80 g/ha came out at 0% and the plant injury at 320 g/ha was 0%.
As for `CCOC(Oc1nn(-c2ccccc2F)c(-c2ccc(F)nc2)c1Br)C(=O)O` (racemic) [Example I-51, (2RS)-{[4-Bromo-1-(2-fluorophenyl)-5-(6-fluoropyridin-3-yl)-1H-pyrazol-3-yl]oxy}(ethoxy)acetic acid], in the assay on TRZAS, the percent crop injury (phytotoxicity) to wheat, post-emergence at 20 g/ha turned out to be 0%. In addition, the “Post-emergence effect … in %” value in the assay on BRSNW is listed as 0%. Besides, in the assay with VIOTR, the pest or weed control at 320 g/ha was 80%. In addition, in the assay with ZEAMX, the plant injury at 20 g/ha amounted to 0%, the plant injury at 80 g/ha was found to be 0% and the plant injury at 320 g/ha worked out at 0%.
